Experimental data: patent US7960556B2, “Thiadiazole derivatives for the treatment of neuro-degenerative diseases” (NV reMYND, priority 2006, dated 2011)

System: α-synuclein cytotoxicity in M17-SYNwt cells
Assay: α-synuclein cytotoxicity assay: LDH leakage from paraquat-treated M17-SYNwt neuroblastoma cells;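 further: paraquat at 32 mM co-added with compound, 40 h exposure, LDH activity released into the culture medium measured, references are DMSO-only cells and paraquat plus DMSO cells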
Conditions: Homo sapiens, Neuroblastoma cell; for Emax: read-out: % Inhib.

SMILES | EC50 [nM] | Emax [%]
CCc1ccc(C(=O)NCCN2CCN(c3nc(Cc4ccc(F)cc4)ns3)CC2)cc1 [compound 103, 4-ethyl-N-{2-[4-[3-(4-fluorobenzyl)-1,2,4-thiadiazol-5-yl]piperazin-1-yl]ethyl}benzamide] | 2320 | 139
O=C(NCCN1CCN(c2nc(Cc3ccc(F)cc3)ns2)CC1)c1ccccc1 [compound 104, N-{2-[4-[3-(4-fluorobenzyl)-1,2,4-thiadiazol-5-yl]piperazin-1-yl]ethyl}benzamide] | 3820 | 65
O=C(NCCN1CCN(c2nc(Cc3ccc(F)cc3)ns2)CC1)c1cccc(F)c1 [compound 105, 3-fluoro-N-{2-[4-[3-(4-fluorobenzyl)-1,2,4-thiadiazol-5-yl]piperazin-1-yl]ethyl}benzamide] |  | 115
O=C(NCCN1CCN(c2nc(Cc3ccccc3)ns2)CC1)c1cccc(F)c1 [compound 106, 3-fluoro-N-{2-[4-[3-benzyl-1,2,4-thiadiazol-5-yl]piperazin-1-yl]ethyl}benzamide] |  | 49
O=C(Cc1ccc(F)cc1)NCCN1CCN(c2nc(Cc3ccc(F)cc3)ns2)CC1 [compound 107, 2-(4-fluorophenyl)-N-{2-[4-[3-(4-fluorobenzyl)-1,2,4-thiadiazol-5-yl]piperazin-1-yl]ethyl}acetamide] | 260 | 80
O=C(Cc1ccccc1)NCCN1CCN(c2nc(Cc3ccc(F)cc3)ns2)CC1 [compound 108, 2-phenyl-N-{2-[4-[3-(4-fluorobenzyl)-1,2,4-thiadiazol-5-yl]piperazin-1-yl]ethyl}acetamide] | 2060 | 63
Cc1ccc(Cc2nsc(N3CCN(CCNC(=O)Cc4ccc(F)cc4)CC3)n2)cc1 [compound 109, 2-(4-fluorophenyl)-N-{2-[4-[3-(4-methylbenzyl)-1,2,4-thiadiazol-5-yl]piperazin-1-yl]ethyl}acetamide] | 3520 | 93
O=C(NCCN1CCN(c2nc(Cc3ccc(F)cc3)ns2)CC1)NCc1ccccc1 [compound 110, N-benzyl-N′-{2-[4-[3-(4-fluorobenzyl)-1,2,4-thiadiazol-5-yl]piperazin-1-yl]ethyl}urea] |  | 77
CCC(C(=O)NCCN1CCN(c2nc(Cc3ccc(F)cc3)ns2)CC1)c1ccccc1 (stereo not shown) [compound 111, 2-phenyl-N-{2-[4-[3-(4-fluorobenzyl)-1,2,4-thiadiazol-5-yl]piperazin-1-yl]ethyl}butanamide] | 1790 | 79
Fc1ccc(Cc2nsc(N3CCN(Cc4ccccc4)CC3)n2)cc1 [compound 113, 1-benzyl-4-[3-(4-fluorobenzyl)-1,2,4-thiadiazol-5-yl]piperazine] | 1540 | 65
Fc1ccc(Cc2nsc(N3CCN(Cc4ccc5c(c4)OCO5)CC3)n2)cc1 [compound 114, 1-(1,3-benzodioxol-5-ylmethyl)-4-[3-(4-fluorobenzyl)-1,2,4-thiadiazol-5-yl]piperazine] |  | 86
COc1cccc(Cc2nsc(N3CCN(C(=O)c4ccccc4F)C(C)C3)n2)c1 (stereo not shown) [compound 115, 1-(2-fluorobenzoyl)-4-[3-(3-methoxybenzyl)-1,2,4-thiadiazol-5-yl]-2-methylpiperazine] | 36.1 | 75
CCc1ccc(C(=O)N2CCN(c3nc(Cc4ccc(F)cc4)ns3)CC2C)cc1 (stereo not shown) [compound 116, 1-(4-ethylbenzoyl)-4-[3-(4-fluorobenzyl)-1,2,4-thiadiazol-5-yl]-2-methylpiperazine] | 52.2 | 71
CCCCc1ccc(C(=O)N2CCN(c3nc(Cc4ccc(C)cc4)ns3)CC2C)cc1 (stereo not shown) [compound 117, 1-(4-butylbenzoyl)-4-[3-(4-methylbenzyl)-1,2,4-thiadiazol-5-yl]-2-methylpiperazine] | 84.1 | 82
COc1ccc(C(=O)N2CCN(c3nc(Cc4ccc(F)cc4)ns3)CC2C)cc1 (stereo not shown) [compound 118, 1-(4-methoxybenzoyl)-4-[3-(4-fluorobenzyl)-1,2,4-thiadiazol-5-yl]-2-methylpiperazine] | 91.1 | 64
CCCCc1ccc(C(=O)N2CCN(c3nc(Cc4ccc(F)cc4)ns3)CC2C)cc1 (stereo not shown) [compound 120, 1-(4-butylbenzoyl)-4-[3-(4-fluorobenzyl)-1,2,4-thiadiazol-5-yl]-2-methylpiperazine] | 98.7 | 120
CCCCCCc1ccc(C(=O)N2CCN(c3nc(Cc4ccc(F)cc4)ns3)CC2)cc1 [compound 121, 1-(4-hexylbenzoyl)-4-[3-(4-fluorobenzyl)-1,2,4-thiadiazol-5-yl]piperazine] | 120 | 64
CC1CN(c2nc(Cc3ccc(F)cc3)ns2)CCN1C(=O)c1cccc(Cl)c1 (stereo not shown) [compound 122, 1-(3-chlorobenzoyl)-4-[3-(4-fluorobenzyl)-1,2,4-thiadiazol-5-yl]-2-methylpiperazine] | 140 | 92
COc1cccc(Cc2nsc(N3CCN(C(=O)c4ccc(F)cc4)C(C)C3)n2)c1 (stereo not shown) [compound 123, 1-(4-fluorobenzoyl)-4-[3-(3-methoxybenzyl)-1,2,4-thiadiazol-5-yl]-2-methylpiperazine] | 140 | 95

SMILES | EC50 [nM] | Emax [%]
COc1cccc(Cc2nsc(N3CCN(C(=O)c4ccc(C)cc4)C(C)C3)n2)c1 (stereo not shown) [compound 124, 1-(4-methylbenzoyl)-4-[3-(3-methoxybenzyl)-1,2,4-thiadiazol-5-yl]-2-methylpiperazine] | 140 | 57
CC1CN(c2nc(Cc3ccc(Cl)cc3)ns2)CCN1C(=O)c1cccc(F)c1 (stereo not shown) [compound 125, 1-(3-fluorobenzoyl)-4-[3-(4-chlorobenzyl)-1,2,4-thiadiazol-5-yl]-2-methylpiperazine] | 160 | 68
CC1CN(c2nc(Cc3ccc(F)cc3)ns2)CCN1C(=O)c1ccccc1 (stereo not shown) [compound 126, 1-benzoyl-4-[3-(4-fluorobenzyl)-1,2,4-thiadiazol-5-yl]-2-methylpiperazine] | 210 | 63
CC1CN(c2nc(Cc3ccc(F)cc3)ns2)CCN1C(=O)c1ccc(F)cc1 (stereo not shown) [compound 127, 1-(4-fluorobenzoyl)-4-[3-(4-fluorobenzyl)-1,2,4-thiadiazol-5-yl]-2-methylpiperazine] | 230 | 108
CC1CN(c2nc(Cc3ccc(F)cc3)ns2)CCN1C(=O)c1ccc(C(C)(C)C)cc1 (stereo not shown) [compound 128, 1-(4-tert-butylbenzoyl)-4-[3-(4-fluorobenzyl)-1,2,4-thiadiazol-5-yl]-2-methylpiperazine] | 240 | 95
CC1CN(c2nc(Cc3ccc(F)cc3)ns2)CCN1C(=O)c1ccc(-c2ccccc2)cc1 (stereo not shown) [compound 129, 1-(1,1′-biphenyl-4-ylcarbonyl)-4-[3-(4-fluorobenzyl)-1,2,4-thiadiazol-5-yl]-2-methylpiperazine] | 240 | 61
CCc1ccc(C(=O)N2CCN(c3nc(Cc4ccc(C)cc4)ns3)CC2)cc1 [compound 131, 1-(4-ethylbenzoyl)-4-[3-(4-methylbenzyl)-1,2,4-thiadiazol-5-yl]piperazine] | 250 | 91
CC1CN(c2nc(Cc3ccc(F)cc3)ns2)CCN1C(=O)c1ccc2ccccc2c1 (stereo not shown) [compound 132, 1-(2-naphthoyl)-4-[3-(4-fluorobenzyl)-1,2,4-thiadiazol-5-yl]-2-methylpiperazine] | 260 | 74
COc1ccccc1C(=O)N1CCN(c2nc(Cc3ccc(F)cc3)ns2)CC1C (stereo not shown) [compound 133, 1-(2-methoxybenzoyl)-4-[3-(4-fluorobenzyl)-1,2,4-thiadiazol-5-yl]-2-methylpiperazine] | 290 | 118
CCCCCc1ccc(C(=O)N2CCN(c3nc(Cc4ccc(C)cc4)ns3)CC2C)cc1 (stereo not shown) [compound 134, 1-(4-pentylbenzoyl)-4-[3-(4-methylbenzyl)-1,2,4-thiadiazol-5-yl]-2-methylpiperazine] | 300 | 75
CC1CN(c2nc(Cc3ccc(F)cc3)ns2)CCN1C(=O)c1ccc(Br)cc1 (stereo not shown) [compound 135, 1-(4-bromobenzoyl)-4-[3-(4-fluorobenzyl)-1,2,4-thiadiazol-5-yl]-2-methylpiperazine] | 310 | 73
COc1ccc(C(=O)N2CCN(c3nc(Cc4ccc(F)cc4)ns3)CC2C)c(OC)c1 (stereo not shown) [compound 136, 1-(2,4-dimethoxybenzoyl)-4-[3-(4-fluorobenzyl)-1,2,4-thiadiazol-5-yl]-2-methylpiperazine] | 340 | 83
O=C(c1cc(Cl)cc(Cl)c1)N1CCN(c2nc(Cc3ccc(F)cc3)ns2)CC1 [compound 137, 1-(3,5-dichlorobenzoyl)-4-[3-(4-fluorobenzyl)-1,2,4-thiadiazol-5-yl]piperazine] | 350 | 68
O=C(c1cccc(Cl)c1)N1CCN(c2nc(Cc3ccc(F)cc3)ns2)CC1 [compound 138, 1-(3-chlorobenzoyl)-4-[3-(4-fluorobenzyl)-1,2,4-thiadiazol-5-yl]piperazine] | 360 | 81
Cc1ccc(C(=O)N2CCN(c3nc(Cc4ccc(F)cc4)ns3)CC2C)cc1 (stereo not shown) [compound 139, 1-(4-methylbenzoyl)-4-[3-(4-fluorobenzyl)-1,2,4-thiadiazol-5-yl]-2-methylpiperazine] | 400 | 87
Cc1ccccc1C(=O)N1CCN(c2nc(Cc3ccc(F)cc3)ns2)CC1C (stereo not shown) [compound 140, 1-(2-methylbenzoyl)-4-[3-(4-fluorobenzyl)-1,2,4-thiadiazol-5-yl]-2-methylpiperazine] | 450 | 56
Cc1ccc(C(=O)N2CCN(c3nc(Cc4ccc(F)cc4)ns3)CC2)cc1 [compound 141, 1-(4-methylbenzoyl)-4-[3-(4-fluorobenzyl)-1,2,4-thiadiazol-5-yl]piperazine] | 490 | 75
CC1CN(c2nc(Cc3ccc(F)cc3)ns2)CCN1C(=O)c1cccc(Br)c1 (stereo not shown) [compound 142, 1-(3-bromobenzoyl)-4-[3-(4-fluorobenzyl)-1,2,4-thiadiazol-5-yl]-2-methylpiperazine] | 500 | 72
